Patent publication US20050032882A1, “Botanical extract compositions and methods of use” (priority 2002, published 2005)
≈ marks a conversion by molar mass, not a printed value.

Columns and labels:
[1] = tested on: MCF-7 breast cancer cells; assay: MTT cell viability assay, MCF-7 breast cancer cells; type: cell-based; settings: concentration giving 50% inhibition of cancer cell growth, 72 hours, linear interpolation
Text: Cancer cell lines: LNCaP, DU-145, and MCF-7 cells were purchased from the American Type Culture Collection. […] Cells were maintained in RPMI 1640 culture media supplemented with 10% heat-inactivated FBS, 5 millimolar glutamine, 50 units/milliliter of penicillin G, and 50 […] of streptomycin. The cells were routinely seeded at 1×10^5 cells/milliliter in T-75 flasks, allowed to attach overnight, then treated with the herbal extract. At different times, cells were harvested by trypsinization. […] The assay reagents were purchased from Boehringer Mannheim (Roche Diagnosis Corp, Indianapolis, Ind.). […] The protocol for the cell viability assay was provided by the manufacturer and modified in our laboratory as described below. CSO-0001-P […] After 24 hours, 20 microliter aliquots of the compounds at various concentrations were added to the attached cells. […] The plates were incubated at 37° C. in a CO2 incubator for 72 hours. […] The plate was allowed to stand overnight in the CO2 incubator and read by an ELISA Reader (EL800, Bio-Tek Instruments, Inc.) at a wavelength of 570 nm. The percent cell viability was calculated according to the equation below: [formula] where V is the percent cell viability, Acontrol is the absorption of the control cells, and Atreated is the absorption of the treated cells. […]

[2] = tested on: DU-145 (androgen-independent) prostate cancer cells; assay: MTT cell viability assay, DU-145 prostate cancer cells; type: cell-based; settings: concentration giving 50% inhibition of cancer cell growth, 72 hours, linear interpolation
Text: (§1) Cancer cell lines: LNCaP, DU-145, and MCF-7 cells were purchased from the American Type Culture Collection. […] Cells were maintained in RPMI 1640 culture media supplemented with 10% heat-inactivated FBS, 5 millimolar glutamine, 50 units/milliliter of penicillin G, and 50 […] of streptomycin. The cells were routinely seeded at 1×10^5 cells/milliliter in T-75 flasks, allowed to attach overnight, then treated with the herbal extract. At different times, cells were harvested by trypsinization. […] The assay reagents were purchased from Boehringer Mannheim (Roche Diagnosis Corp, Indianapolis, Ind.). […] The protocol for the cell viability assay was provided by the manufacturer and modified in our laboratory as described below. […] After 24 hours, 20 microliter aliquots of the compounds at various concentrations were added to the attached cells. […] The plates were incubated at 37° C. in a CO2 incubator for 72 hours. At the end of day 3 (after 72 hours), the culture medium was carefully removed without disturbing the cells and replaced by 100 microliters of fresh cell medium.

[3] = tested on: PTX 10 (taxol resistant ovarian cancer cell line); assay: MTT cell viability assay, PTX 10 taxol-resistant ovarian cancer cells; type: cell-based; settings: protocol as Example 1
Text: Cancer cell lines: LNCaP, DU-145, and MCF-7 cells were purchased from the American Type Culture Collection. PTX 10, a taxol-resistant ovarian cancer cell line, was obtained from the Brander Cancer Research Laboratory, New York Medical College. Cells were maintained in RPMI 1640 culture media supplemented with 10% heat-inactivated FBS, 5 millimolar glutamine, 50 units/milliliter of penicillin G, and 50 […] of streptomycin. The cells were routinely seeded at 1×10^5 cells/milliliter in T-75 flasks, allowed to attach overnight, then treated with the herbal extract. At different times, cells were harvested by trypsinization.
The assay reagents were purchased from Boehringer Mannheim (Roche Diagnosis Corp, Indianapolis, Ind.). […] The protocol for the cell viability assay was provided by the manufacturer and modified in our laboratory as described below.
After 24 hours, 20 microliter aliquots of the compounds at various concentrations were added to the attached cells. […] The plates were incubated at 37° C. in a CO2 incubator for 72 hours. At the end of day 3 (after 72 hours), the culture medium was carefully removed without disturbing the cells and replaced by 100 microliters of fresh cell medium.

[4] = biological target: T1, COX-2 (Ovis aries, UniProt P79208); assay: ovine COX-2 Inhibitor Screening Assay (Cayman, prostaglandin immunoassay); type: biochemical; settings: ovine COX-2, arachidonic acid substrate; read-out: IC50 COX-2 inhibition
T1 construct: purchased Cayman Chemical 760101
T1 sequence (P79208 17-603): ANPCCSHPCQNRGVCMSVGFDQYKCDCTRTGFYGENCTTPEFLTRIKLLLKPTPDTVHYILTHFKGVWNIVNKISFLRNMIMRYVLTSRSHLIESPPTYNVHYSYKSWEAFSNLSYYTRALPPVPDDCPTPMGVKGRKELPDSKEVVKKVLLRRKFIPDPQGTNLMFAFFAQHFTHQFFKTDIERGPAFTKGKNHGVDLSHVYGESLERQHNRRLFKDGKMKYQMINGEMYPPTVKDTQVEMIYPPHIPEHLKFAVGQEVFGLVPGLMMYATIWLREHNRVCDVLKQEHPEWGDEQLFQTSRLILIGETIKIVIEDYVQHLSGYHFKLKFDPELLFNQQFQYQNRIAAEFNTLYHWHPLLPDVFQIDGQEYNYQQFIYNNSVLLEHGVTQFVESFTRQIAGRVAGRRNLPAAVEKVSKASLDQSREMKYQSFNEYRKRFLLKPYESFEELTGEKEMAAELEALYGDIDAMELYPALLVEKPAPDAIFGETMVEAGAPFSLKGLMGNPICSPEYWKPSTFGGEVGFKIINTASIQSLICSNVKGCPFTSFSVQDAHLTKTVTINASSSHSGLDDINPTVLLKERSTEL
Method: This immunoassay uses an antibody to that binds all major prostaglandins to measure quantitatively the amount of PGF2α produced in the COX reaction using arachidonic acid as a substrate. The final volume of the reactions as described below is typically 1.15 ml. In brief, COX-1 or COX-2 (e.g., 20 μl of a solution of from 1 to 100 units/ml COX, where a unit is defined as the amount of enzyme that consumes one nanomole of oxygen per minute at 37° C. in 0.1 M Tris-HCl buffer, pH 8.0 containing 100 μM arachidonate, 5 mM EDTA, 2 mM phenol and 1 μM hematin) is first mixed with a buffer (e.g., 0.1 M Tris, pH 8.0, 5 mM EDTA, 2 mM phenol) and heme (e.g., 10 μl of 10 mM heme) in a microfuge tube. The heme is a cofactor for COX that provides maximal activity in the assay. […] The prostaglandin produced in the reactions is typically quantified using an enzyme immunoassay.
The enzyme immunoassay to detect prostaglandin can conveniently be performed in a 96 well plate using an antibody to detect prostaglandin. As controls, prostaglandin standards and COX 100% activity samples (no inhibitor) can be measured. […] When ready to develop the plate, the reactions are first washed and then incubated with 200 μl of Ellman's reagent for 60 minutes or so. The plate can be read at 405 to 420 nm on a plate reader. […]

[5] = tested on: LNCaP cells; assay: LNCaP cell cycle by DNA content flow cytometry; type: cell-based; settings: LNCaP cells exposed 24-48 hours, DAPI DNA content flow cytometry
Method: The cells were washed with phosphate buffered saline (PBS) and fixed in ice-cold 70% ethanol. […] ([…]. Juan, […]. Chen, F. Traganos and Z. Darzynkiewicz, “Apoptosis and Cell Cycle Effects Induced by Extracts of the Chinese Herbal Preparation of PC SPES”, International J. of Oncology (1997), 11: 437-448). The cellular DNA content was measured with an ELITE ESP flow cytometer (Coulter Inc., Fl.) using UV laser illumination. The multicycle program was used to deconvolute the DNA frequency histograms to estimate the frequency of cells in different phases of the cell cycle. […] Similar measurements were conducted for isoliquiritigenin.

[6] = tested on: LNCaP (androgen-dependent) prostate cancer cells; assay: MTT cell viability assay, LNCaP prostate cancer cells; type: cell-based; settings: concentration giving 50% inhibition of cancer cell growth, 72 hours, linear interpolation
Text: as §1

[7] = tested on: DU-145 cells; assay: DU-145 cell cycle by DNA content flow cytometry; type: cell-based; settings: protocol of Example 3
Method: The cells were washed with phosphate buffered saline (PBS) and fixed in ice-cold 70% ethanol. […] ([…]. Juan, […]. Chen, F. Traganos and Z. Darzynkiewicz, “Apoptosis and Cell Cycle Effects Induced by Extracts of the Chinese Herbal Preparation of PC SPES”, International J. of Oncology (1997), 11: 437-448). The cellular DNA content was measured with an ELITE ESP flow cytometer (Coulter Inc., Fl.) using UV laser illumination. The multicycle program was used to deconvolute the DNA frequency histograms to estimate the frequency of cells in different phases of the cell cycle.

IC50 [4] [µM] | SMILES | ED50 from MTT assay, MCF7 [1] [µg/mL] | ED50 from MTT assay, DU145 [2] [µg/mL] | ED50 PTX 10 (taxol resistant ovarian cancer cell) [3] [µg/mL] | effect on LNCaP cell cycle phases (G1, S, G2M) [5] | ED50 from MTT assay, LNCaP [6] [µg/mL] | effect on DU-145 cell cycle phases [7]
10.5 | O=C(/C=C/c1ccc(O)cc1)c1ccc(O)cc1O [Isoliquiritigenin, 2′,4,4′-trihydroxychalcone] | 3.25 (≈ 12.7 µM) | 7.60 (≈ 29.7 µM) | 3.32 (≈ 13 µM) | induced a G2M phase arrest | 3.51 (≈ 13.7 µM) | –
– | COc1c(O)cc(O)c2c(=O)cc(-c3ccccc3)oc12 [Wogonin, 5,7-dihydroxy-8-methoxy-flavone] | – | – | – | induced a G1 phase arrest | – | prolonged the G2M phase
